Reference: US20130190407A1, “CALCIUM RECEPTOR-ACTIVE MOLECULES” (NPS Pharmaceuticals, Inc., priority 1991, published 2013)
Like-named read-outs stand apart in the source and are kept apart here.

What was measured:
[1] = biological target: T1, parathyroid cell calcium receptor (Bos taurus, UniProt P35384); assay: Mobilization of intracellular Ca2+ ([Ca2+]i, fura-2) in bovine parathyroid cells; assay type: cell-based; parameters: Parathyroid glands were obtained from freshly slaughtered calves (12-15 weeks old); endogenous in cells; host or cells: dissociated primary bovine (calf) parathyroid cells; conditions: EC50 for mobilization of intracellular Ca2+; bovine parathyroid cells
T1 sequence (P35384 20-1085): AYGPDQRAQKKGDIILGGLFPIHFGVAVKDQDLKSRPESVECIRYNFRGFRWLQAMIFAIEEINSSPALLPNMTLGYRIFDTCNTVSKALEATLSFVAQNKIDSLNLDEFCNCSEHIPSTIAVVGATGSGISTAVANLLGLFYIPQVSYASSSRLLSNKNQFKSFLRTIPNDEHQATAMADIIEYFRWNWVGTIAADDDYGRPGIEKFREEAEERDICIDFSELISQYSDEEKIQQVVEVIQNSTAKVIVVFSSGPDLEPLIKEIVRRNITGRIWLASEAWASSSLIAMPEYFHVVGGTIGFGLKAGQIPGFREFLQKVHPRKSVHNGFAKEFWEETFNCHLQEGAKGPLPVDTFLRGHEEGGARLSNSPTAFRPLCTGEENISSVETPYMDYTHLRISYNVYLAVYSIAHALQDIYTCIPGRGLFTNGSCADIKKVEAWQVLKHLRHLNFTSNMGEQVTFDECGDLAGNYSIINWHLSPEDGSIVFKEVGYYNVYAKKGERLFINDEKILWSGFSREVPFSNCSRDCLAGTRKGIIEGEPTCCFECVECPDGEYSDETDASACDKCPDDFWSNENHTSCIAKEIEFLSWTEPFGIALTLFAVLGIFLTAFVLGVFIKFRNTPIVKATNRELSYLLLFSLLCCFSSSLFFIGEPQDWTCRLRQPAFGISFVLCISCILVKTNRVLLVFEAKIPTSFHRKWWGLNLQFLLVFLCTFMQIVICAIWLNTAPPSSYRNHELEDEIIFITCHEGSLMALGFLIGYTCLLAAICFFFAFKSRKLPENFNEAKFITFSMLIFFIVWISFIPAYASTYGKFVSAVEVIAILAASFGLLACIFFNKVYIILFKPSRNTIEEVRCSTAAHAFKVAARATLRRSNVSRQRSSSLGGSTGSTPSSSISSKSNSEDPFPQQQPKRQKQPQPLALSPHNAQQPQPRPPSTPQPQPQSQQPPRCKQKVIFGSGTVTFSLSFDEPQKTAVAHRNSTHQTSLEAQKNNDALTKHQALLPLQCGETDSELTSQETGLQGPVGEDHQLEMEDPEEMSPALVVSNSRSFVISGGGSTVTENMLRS
Experimental: This section describes procedures used to obtain and treat parathyroid cells from calves and humans. […] Human parathyroid glands, were obtained from patients undergoing surgical removal of parathyroid tissue for primary or uremic hyperparathyroidism (uremic HPT), and were treated similarly to bovine tissue.
Glands were trimmed of excess fat and connective tissue and then minced with fine scissors into cubes approximately 2-3 mm on a side. Dissociated parathyroid cells were prepared by collagenase digestion and then purified by centrifugation in Percoll buffer. The resultant parathyroid cell preparation was essentially devoid of red blood cells, adipocytes, and capillary tissue as assessed by phase contrast microscopy and Sudan black B staining. Dissociated and purified parathyroid cells were present as small clusters containing 5 to 20 cells.
The cells were then pelleted, resuspended in the same buffer, but lacking the ester, and incubated a further 15 minutes at 37° C. The cells were subsequently washed twice with PCB containing 0.5 mM CaCl2 and 0.5% BSA and maintained at room temperature (about 20° C.) Immediately before use, the cells were diluted five-fold with prewarmed 0.5 mM CaCl2-PCB to obtain a final BSA concentration of 0.1%. The concentration of cells in the cuvette used for fluorescence recording was 1−2×10^6/ml.
The fluorescence of indicator-loaded cells was measured at 37° C. in a spectrofluorimeter (Biomedical Instrumentation Group, University of Pennsylvania, Philadelphia, Pa.) equipped with a thermostated cuvette holder and magnetic stirrer using excitation and emission wavelengths of 340 and 510 nm, respectively. […] Leakage of dye is dependent on temperature and most occurs within the first 2 minutes after warming the cells in the cuvette. Dye leakage increases only very slowly thereafter. To correct the calibration for dye leakage, cells were placed in the cuvette and stirred at 37° C. for 2-3 minutes. The cell suspension was then removed, the cells pelleted, and the supernatant returned to a clean cuvette. […] This estimate was subtracted from the apparent Fmin.

Sprague-Dawley rats = assay: Serum/plasma Ca2+, PTH and calcitonin in rats in vivo; parameters: species or system rat; conditions: for ED50: Rattus norvegicus, po, normal adult rats
Experimental: Compounds shown to activate the bovine parathyroid cell calcium receptor in vitro were tested for hypocalcemic activity in vivo. Male Sprague-Dawley rats (200 g) were maintained on a low calcium diet for one week prior to receiving test substance or vehicle as control. Blood was collected from the tail vein three hours after the intra-peritoneal administration of NPS 467. […] Serum total calcium, albumin and phosphate were measured by techniques well known in the art.
Rats (male, Sprague-Dawley, 250-300 g) were fed standard rat chow and fasted overnight prior to the experiment. NPS R-467 was suspended in corn oil, and administered as a single oral dose through a gavage needle. Three hours later a sample of blood was taken from the tail vein and assessed for ionized Ca^2+ levels.

[2] = tested on: parathyroidectomized rats; assay: Serum ionized Ca2+ in parathyroidectomized animals; assay type: in vivo, rat
Text: To determine the primary target tissue upon which NPS R-467 acts to cause a hypocalcemic response, the parathyroid glands in rats were surgically removed. Animals receiving a total parathyroidectomy become hypocalcemic and are largely dependent upon dietary calcium to maintain serum Ca^2+ homeostasis.

[3] = biological target: T2, bovine parathyroid cell calcium receptor (Bos taurus, UniProt P35384); assay: Cl- current in Xenopus oocytes injected with BoPCaR 1; assay type: cell-based
T2 construct: isolation of a single clone (BoPCaR 1) with a cDNA insert of 5.3 kb; expressed in transfected cells
T2 sequence (P35384 20-1085): T1 sequence (P35384 20-1085)
Experimental: Several pharmacological and biochemical criteria were used to identify this clone as encoding a bona fide bovine parathyroid Ca^2+ receptor. […] These responses increased markedly over a period of one to four days after injection of the eggs with cRNA prepared from the BoPCaR 1 cDNA. Furthermore, the ranges of the concentrations of the two cations eliciting this response were very similar to those shown previously to act on bovine parathyroid cells in vitro.
Xenopus oocytes were injected with BoPCaR 1, the 5.3 Kb cDNA encoding a bovine parathyroid cell calcium receptor as described in Example 25. After two to three days, Cl^− currents were examined in the oocytes using a two-electrode voltage clamp.
Xenopus oocytes were injected with BoPCaR 1 as described in Example 25. After two to three days, Cl^− currents were examined in the oocytes using two electrode voltage clamp.

SMILES	EC50 [1] [µM]	potency in lowering serum Ca2+ in vivo (Sprague-Dawley rats; 5 mg/kg body weight)	serum ionized Ca2+ (Sprague-Dawley rats; single oral dose in corn oil, three hours)	change in serum ionized Ca2+ ([2]; 10 mg/kg i.p., over 6 hours)	EC50 ([3]; 0.3 or 1 mM extracellular Ca2+, read-out: EC50 for increases in Cl- current) [µM]	ED50 (Sprague-Dawley rats; read-out: ED50 for depression of plasma Ca2+) [mg/kg]	ED50 (Sprague-Dawley rats; read-out: ED50 for depression of plasma PTH) [mg/kg]	ED50 (Sprague-Dawley rats; read-out: ED50 for stimulation of calcitonin) [mg/kg]	hypocalcemic response ([2]; oral administration)	concentrations producing changes in Cl- current [3] [µM]
COc1cccc([C@@H](C)NCCCc2ccccc2)c1 (single isomer, unassigned) [NPS R-467]	< 5	more potent than the S-isomer in lowering serum Ca^2+ in vivo	dose-dependent reduction in serum levels of ionized Ca^2+	did not cause any change in serum ionized Ca^2+ levels	–	–	–	–	–	–
COc1cccc([C@@H](C)NCCCc2ccccc2Cl)c1 [NPS R-568, (R)-(+)-N-[3-(2-chlorophenyl)propyl]-α-methyl-3-methoxybenzylamine]	< 5	–	–	–	~3	8	1	40	fails to elicit a hypocalcemic response	–
NC[C@@H]1O[C@H](O[C@H]2[C@@H](O)[C@H](O[C@@H]3[C@@H](O)[C@H](N)C[C@H](N)[C@H]3O[C@H]3O[C@H](CN)[C@@H](O)[C@H](O)[C@H]3N)O[C@@H]2CO)[C@H](N)[C@@H](O)[C@@H]1O [Neomycin B, neomycin B]	–	–	–	–	–	–	–	–	–	20 to 100
